Our source for the GI50 values is ChEMBL document CHEMBL1128356, “Antineoplastic agents. 291. Isolation and synthesis of combretastatins A-4, A-5, and A-6(1a)” (1995).

Some results are limits rather than exact numbers.

What is called GI50 is the concentration that inhibits growth by half. A high value points to lower sensitivity of the cells.

The subject of assay [1] is NCI 60 human tumor cell line panel (Homo sapiens). Nature of the assay: In vitro inhibitory activity against NCI 60 human tumor cell line panel.
Assay [2] deals with Panel (Carcinoma cell lines). The assay can be described thus: In vitro antitumor activity against human tumor cancer cell lines. It is filed as functional.

In assay [1], `COc1ccc(/C=C\c2cc(OC)c(OC)c(OC)c2)cc1O` [COMBRETASTATIN A4] returned a GI50 of 3.2 nM.
The same measure, in the same setting: as for `COc1ccc(/C=C\c2cc(O)c(OC)c(OC)c2)cc1OC`, the figure is 1650 nM.
On to `COc1ccc(/C=C\c2cc(OC)c(OC)c(OC)c2)c(O)c1O` [COMBRETASTATIN A-1], for which, in assay [2], growth was halved (GI50) at 16.2 nM.
On the same count and under the same terms, as for `COc1ccc(/C=C\c2cc(OC)c3c(c2)OCO3)cc1O` [Combretastatin A-2], the figure is 31.6 nM.
On to `COc1ccc(/C=C/c2cc(O)c(OC)c(OC)c2)cc1OC`, for which the GI50 in assay [1] was over 100000 nM.
